Like-named read-outs stand apart in the source and are kept apart here.
Tests used:
[1] = system: hepatic metastases of murine colon carcinoma C-26 cells; assay: Effect of free and conjugated FUdR on liver metastases of C-26 cells in mouse; type: in vivo; settings: for Increase of liver weight: saline 1.22 ± 0.25; for Total Liver DNA: saline 11.83 ± 1.75
Description: (§1) Female Balb/C mice 7-8 weeks old (weighing 16-19 g) and male Wistar rats (weighing 170-190 g) were used. They were obtained from Harlan Italy and were maintained in an animal facility at the Department of Experimental Pathology, Bologna, receiving humane care, in accordance with European Legislation. The protocols of the experiments were approved by the Ethical Committee of the University of Bologna. Animals. were fed a standard pellet diet ad lib.
Compounds were injected intravenously every other day, starting 24 h after inoculation of tumour cells. Four administrations were performed, and the animals were sacrificed one day after the injection.

[2] = [^3H]FUdR levels in inferior vena cava (IVC) and hepatic veins (HV) of rats intravenously injected with free or L-HSA conjugated [^3H]FUdR; type: in vivo; settings: rat
From the text: Two radioactive conjugates were synthesised: one labelled in the carrier (L-[^14C]HSA-FUdR) and one in the drug moiety (L-HSA-[^3H]FUdR). […] The conjugateradioactive in the drug moiety (three preparations) was obtained using [^3H]FUdR (Moravek).
as §1, with “They” for “Female Balb/C mice 7-8 weeks old (weighing 16-19 g) and male Wistar rats (weighing 170-190 g) were used. They”
Plasma levels of free [^3H]FUdR were measured by using the isotope dilution procedure and HPLC. In order to identify the elution time of [^3H]FUdR in HPLC chromatogram and to evaluate the recovery, 15 μg of unlabeled FUdR was added to each plasma sample (400 μl), kept cold in ice. Plasma proteins were removed by the addition of 30 μl trichloroacetic acid 80% and centrifugation at 2-4° C. After diethylether extraction to eliminate trichloroacetic acid, […] supernatant was chromatographed on a Spherisorb ODS2 equilibrated on 20 mM sodium tetraborate pH 7.5 and eluted with a linear gradient of methanol (0-30%). Radioactivity eluting at the position of FUdR marker was counted and the plasma concentration of [^3H]FUdR was calculated taking into account the recovery of the marker (measured by UV absorbance) and the specific activity (SA) of injected [^3H]FUdR. […] When radioactivity of FUdR peak was lower than 200 dpm, the plasma concentration of [^3H]FUdR was considered below a measurable level (BML). With a 90% recovery of FUdR marker, the lowest measurable plasma concentration was about 25 ng [^3H]FUdR/ml.
These concentrations are a measure of drug levels in systemic circulation and in liver blood, respectively.

[3] = patients with colorectal cancer, intravenous continuous infusion of a therapeutic dose; cited from earlier work
[4] = system: serum alanine aminotransferase (ALT); assay: Effect on alanine aminotransferase (ALT) serum levels in mouse; type: in vivo
Description: To verify whether the selective delivery of FUdR to hepatic cells accomplished by the conjugate causes liver damage, we compared the effect of free and conjugated FUdR on the serum alanine aminotransferase (ALT) (EC 2.6.1.2) level in mice (Table 3). An increase in the level of this enzyme is an index of hepatocyte damage. The drugs were administered according to the schedule used for the experiments on the growth of hepatic metastases.

[5] = Exp. 1, daily dose 5 μg/g i.v. every other day x4, NS

O=c1[nH]c(=O)n([C@H]2C[C@H](O)[C@@H](CO)O2)cc1F [Free FUdR, 5-fluoro-2′-deoxyuridine]
Increase of liver weight [1, 5]: 1.00 ± 0.17 g | Total Liver DNA [1, 5]: 9.47 ± 1.06 mg | Increase of liver weight ([1]; Exp. 1, daily dose 10 μg/g i.v. every other day x4, p = 0.070): 0.64 ± 0.15 g | Total Liver DNA ([1]; Exp. 1, daily dose 10 μg/g i.v. every other day x4, p = 0.041): 7.32 ± 0.91 mg | Daily dose that inhibited the tumour growth ([1]; i.v. every other day, four administrations): 10 µg/g | concentration at 15 min ([2]; male, Wistar, plasma of hepatic vein blood, iv, i.v. 2.5 μg/g, 15 min, read-out: [^3H]FUdR level HV): 57.6 ± 9 ng/mL | concentration at 7 min ([2]; male, Wistar, plasma of hepatic vein blood, iv, i.v. 10 μg/g, 7 min, read-out: [^3H]FUdR level HV): 385 ng/mL | concentration at 15 min ([2]; male, Wistar, plasma of hepatic vein blood, iv, i.v. 10 μg/g, 15 min, read-out: [^3H]FUdR level HV): 203 ng/mL | concentration at 30 min ([2]; male, Wistar, plasma of hepatic vein blood, iv, i.v. 10 μg/g, 30 min, read-out: [^3H]FUdR level HV): 77.5 ± 43.6 ng/mL | concentration at 15 min ([2]; male, Wistar, plasma of hepatic vein blood, iv, i.v. free 1.2 μg/g, 15 min, read-out: [^3H]FUdR level HV): 40.9 ± 7.7 ng/mL | concentration at 7 min ([2]; male, Wistar, plasma of inferior vena cava blood, iv, i.v. 0.15 μg/g, 7 min, read-out: [^3H]FUdR level IVC): 80.1 ± 4.2 ng/mL | concentration at 15 min ([2]; male, Wistar, plasma of inferior vena cava blood, iv, i.v. 2.5 μg/g, 15 min, read-out: [^3H]FUdR level IVC): 404 ± 47.9 ng/mL | concentration at 30 min ([2]; male, Wistar, plasma of inferior vena cava blood, iv, i.v. 2.5 μg/g, 30 min, read-out: [^3H]FUdR level IVC): 156 ± 51.9 ng/mL | concentration at 45 min ([2]; male, Wistar, plasma of inferior vena cava blood, iv, i.v. 2.5 μg/g, 45 min, read-out: [^3H]FUdR level IVC): 25.5 ± 0.2 ng/mL | concentration at 7 min ([2]; male, Wistar, plasma of inferior vena cava blood, iv, i.v. 10 μg/g, 7 min, read-out: [^3H]FUdR level IVC): 1570 ng/mL | concentration at 15 min ([2]; male, Wistar, plasma of inferior vena cava blood, iv, i.v. 10 μg/g, 15 min, read-out: [^3H]FUdR level IVC): 1060 ng/mL | concentration at 30 min ([2]; male, Wistar, plasma of inferior vena cava blood, iv, i.v. 10 μg/g, 30 min, read-out: [^3H]FUdR level IVC): 467 ± 228 ng/mL | concentration at 15 min ([2]; male, Wistar, plasma of inferior vena cava blood, iv, i.v. free 1.2 μg/g, 15 min, read-out: [^3H]FUdR level IVC): 275.2 ± 0.7 ng/mL | concentration at 30 min ([2]; male, Wistar, plasma of inferior vena cava blood, iv, i.v. free 1.2 μg/g, 30 min, read-out: [^3H]FUdR level IVC): 38.9 ± 5.8 ng/mL | [^3H]FUdR level HV ([2]; i.v. 0.15 μg/g, 7 min): BML^b) (Below Measurable Level (<25 ng/ml)) | Levels in HV / Levels in IVC ([2]; i.v. 2.5 μg/g, 15 min): 0.15 ± 0.04 | Levels in HV / Levels in IVC ([2]; i.v. 2.5 μg/g, 30 min): 0.19 | [^3H]FUdR level HV ([2]; i.v. 2.5 μg/g, 45 min): BML (Below Measurable Level (<25 ng/ml)) | Levels in HV / Levels in IVC ([2]; i.v. 10 μg/g, 7 min): 0.24 | Levels in HV / Levels in IVC ([2]; i.v. 10 μg/g, 15 min): 0.19 | Levels in HV / Levels in IVC ([2]; i.v. 10 μg/g, 30 min): 0.16 ± 0.02 | Levels in HV / Levels in IVC ([2]; i.v. free 1.2 μg/g, 15 min): 0.15 ± 0.03 | [^3H]FUdR level HV ([2]; i.v. free 1.2 μg/g, 30 min): BML (Below Measurable Level (<25 ng/ml)) | [^3H]FUdR level HV ([2]; i.v. free 1.2 μg/g, 60 min): BML (Below Measurable Level (<25 ng/ml)) | [^3H]FUdR level IVC ([2]; i.v. free 1.2 μg/g, 60 min): BML (Below Measurable Level (<25 ng/ml)) | Estimated blood concentration of the drug [3]: about 0.2 ng/ml | Serum ALT levels ([4]; Exp 2, 50 μg/g, four i.v. injections on alternate days, saline 64.5 ± 15.0, p = 0.045): 114.8 ± 16.0 p = 0.045 U/I | Effect on serum ALT level ([4]; dose 5 times higher than that active on the metastases): increase in ALT levels at the limit of statistical significance

— US20040044178A1, “Hepatotropic conjugates of antiblastic drugs accomplishing a loco-regional chemotherapy of liver micrometastases after adminstration by peripheral venous route” (priority 2001, published 2004)
